Assay results reported in patent publication US20240150396A1 (The Texas A&M University System, priority 2021, published 2024).
“And” between values parts separate entries of the source, which are not always exact repeats. Equal values may be shown once. Read-outs that look alike come from different tables or passages of the source.

Legend:
[1] = biological target: cruzain (Trypanosoma cruzi, UniProt P25779); test: biochemical; conditions: for Ki: pH 7.5
Method in brief: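 Fluorogenic assay at 25 °C following AMC release (ex 360/em 460 nm), with typically 0.2 nM cruzain and 10% DMSO, at pH 7.5 or 5.5 buffer with 5 mM DTT.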

[2] = test system: T. cruzi (Ca-I/72) in C2C12 murine cardiomyoblasts; test: T. cruzi-infected murine cardiomyoblasts (C2C12); type: cell-based, Trypanosoma cruzi
Method in brief: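 C2C12 mouse cardiomyoblasts infected with T. cruzi Ca-I/72 (10^3 and 10^4 parasites) and exposed to 3-fold serial dilutions of inhibitor from a 10 μM maximum, 48 h at 37° C. After PFA fixation and DAPI staining, automated imaging quantified parasites and host cells, giving EC50 and host CC50.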

[3] = test system: SARS-CoV-2 in Vero E6 cells; test: Anti-CoV-2 activity in Vero E6 cells; type: cell-based
[4] = test system: SARS-CoV-2 in A549/ACE2 cells; type: cell-based; conditions: read-out: Anti-CoV-2 EC50 A549/ACE2 Cells
[5] = test system: esterase from porcine liver; test: Hydrolysis of SMAI prodrugs by porcine esterase; type: in vitro ADME; conditions: for half-life of conversion to compound 36: porcine esterase, buffer pH 7.5, 37° C.
Description: Evaluation of SMAI Prodrugs. Esterase from porcine liver was obtained as an ammonium sulfate suspension (Sigma-Aldrich, E2884, 10 U/μL). Compounds 37-39 in 100% (v/v) DMSO solutions were diluted by 10-fold into cruzain assay buffer to make 1 mL-samples, each containing 2 mM compound. For the experimental sample, 4 μL of esterase suspension was added to the reaction mixtures (40 U/mL), which was immediately placed on a low-speed orbital shaker in a 37° C. incubator. In the meantime, a negative control (lacking esterase) and a blank control (buffer only) were included. Aliquots (140 μL) of the reaction mixtures were removed at 0, 15, 30, 60, 120, 180, and 300 min, and reactions were quenched by the addition of MeCN (260 μL). The resulting solution was vortexed, followed by centrifugation to precipitate the protein, and the resulting compounds in the supernatant were analyzed by HPLC-MS with detection at 270 nm.
Rates of de-acylation reactions of SMAI prodrugs 37-39 were obtained upon evaluation of the first-order loss of reagent as fitted to eq. 6, in which A0 and C are the initial and final fraction of unhydrolyzed compound, respectively, k is the pseudo-first order rate constant, from which the half-life was t1/2=ln 2/k.

[6] = test system: T. b. brucei bloodstream forms; test: Growth of axenic cultures of T. b. brucei bloodstream forms (BSFs)
[7] = test system: T. cruzi (Ca-I/72) in C2C12 murine cardiomyoblasts; conditions: antichagasic activity, Ref. 55; cited from earlier work
[8] = test system: CYPs 3A4, 2D6 and 2C9; conditions: human, 4 h, 0.5 mM, pH 7.5
[9] = Detection of aldehyde content using phenylhydrazine; type: physicochemical; conditions: 1 mM phenylhydrazine
Description: Detection of Aldehyde Content Using Phenylhydrazine. In a 96-well clear microplate, compounds 52 and 36 in DMSO solutions, or pure DMSO as a control, were diluted into the above NMR buffer without addition of DTT to make 250 μL-samples, each containing 0.2 mM of compounds and 10% DMSO (v/v). Upon addition of 1M phenylhydrazine (0.25 μL), the formation of phenylhydrazone in these wells were continuously monitored for 2 hours by measuring UV absorbance at the maximal wavelength of 282 nm.

[10] = biological target: human cathepsin L (Homo sapiens (Human), UniProt P07711); test: Human cathepsin L inhibition, Z-FR-AMC assay; type: biochemical; conditions: pH 5.5, 25° C., 10% DMSO; read-out: Ki* Human Cathepsin L
Chain of human cathepsin L (P07711 114-333): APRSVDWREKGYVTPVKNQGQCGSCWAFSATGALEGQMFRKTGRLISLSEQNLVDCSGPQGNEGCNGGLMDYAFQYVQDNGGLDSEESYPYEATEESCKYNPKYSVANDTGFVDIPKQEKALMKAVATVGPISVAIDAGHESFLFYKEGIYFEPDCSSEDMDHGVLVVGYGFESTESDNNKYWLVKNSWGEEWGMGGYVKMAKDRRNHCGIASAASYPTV
Method in brief: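 Recombinant human enzymes were assayed at 25°C in sodium acetate pH 5.5 with 1 mM CHAPS, 1 mM EDTA, 5 mM DTT and 10% DMSO final, using the fluorogenic substrate Z-FR-AMC. AMC release (ex 360/em 460 nm) was followed over 30–60 min and converted to rates (μM/s) via an AMC standard curve.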

[11] = biological target: human cathepsin B (Homo sapiens (Human), UniProt P07858); test: Human cathepsin B inhibition, Z-FR-AMC assay; type: biochemical; conditions: pH 5.5, 25° C., 10% DMSO; read-out: Ki* Human Cathepsin B
Description: Recombinant human cathepsins B and L were purchased from Millipore Sigma and used without further treatment. The solid proteins were dissolved into a solution of 50 mM sodium acetate (pH 5.5), 1 mM EDTA, 1 mM CHAPS, 10% (v/v) DMSO, and 5 mM DTT to final concentrations of […] in 20-mL aliquots, and stored at −80° C. until needed. These samples were then diluted into the same buffer to concentrations of −100 nM, and these dilutions were stored at 4° C. and used daily until depletion.
For assays of cathepsin L and B, inhibitors were evaluated in 0.25-mL reaction mixtures containing a buffer of sodium acetate (pH 5.5), 1 mM CHAPS, 1 mM Na2EDTA, and 5 mM DTT at 25° C. The fluorogenic substrate Cbz-Phe-Arg-7-amino-4-methyl-coumarin (Z-FR-AMC) was dissolved in 100% DMSO, as were all inhibitors, and aliquots of both substrates and inhibitors were added to reaction mixtures to final concentrations of DMSO of 10% (v/v). […] Formation of the fluorescent product AMC was monitored over 30-60-minute time courses for reaction mixtures in 96-well black microplates (Corning Costar®). Rates of peptidolysis of the dipeptide-AMC substrate(s) were measured on either a SpectraMax M5 (Molecular Devices) or a Synergy HTX (Biotek, Wisnooki, VT) microplate reader with λex=360 nm, λem=460 nm in ≥8-sec intervals. Control samples excluded substrate. The measured relative fluorescence units (RFUs) of generated AMC were converted to reaction rates of μM/s by use of a standard curve of known AMC concentrations obtained for both plate readers.

[12] = biological target: human cathepsin S (Homo sapiens (Human), UniProt P25774); test: Human cathepsin S inhibition; type: biochemical; conditions: pH 5.5, 25° C., 10% DMSO
Chain of human cathepsin S (P25774 115-331): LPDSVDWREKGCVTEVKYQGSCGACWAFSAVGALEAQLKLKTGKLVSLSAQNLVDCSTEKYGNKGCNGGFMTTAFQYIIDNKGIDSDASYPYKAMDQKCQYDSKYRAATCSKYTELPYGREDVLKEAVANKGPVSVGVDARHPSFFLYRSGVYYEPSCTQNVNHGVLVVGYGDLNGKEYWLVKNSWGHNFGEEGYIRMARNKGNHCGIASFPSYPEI
Description: Cruzain inhibitors were added at seven concentrations and one fixed concentration of Cbz-Phe-Arg-AMC, and time courses of AMC formation were analyzed as with cruzain.

[13] = test system: T. b. brucei procyclic forms; test: Growth of axenic cultures of T. b. brucei procyclic forms (PCFs); type: cell-based, Trypanosoma brucei brucei; conditions: Trypanosoma brucei, axenic culture; read-out: EC50 T. b. brucei PCF
[14] = test system: human dermal fibroblasts; test: Human cell toxicity, resazurin viability; type: cell-based; conditions: human dermal fibroblasts; read-out: Human Cell Cytotoxicity CC50
Description: Primary human dermal fibroblast (HDF) cells were used to evaluate human cell toxicity of cruzain inhibitors. HDF cells were plated in a 384-well plate at 2400 cells per well (62,000 cells mL^−1). Inhibitors in 100% DMSO were added in duplicate to final concentrations of 0.001-0.1 mM and 1% DMSO (v/v) with 1% DMSO as a control sample, and cells were cultured at 37° C. for 48 h, followed by the addition of resazurin. Cell viability was then assessed by reading of fluorescence (excitation/emission: 544 nm/590 nm) after an additional 24 h of incubation.

[15] = Host cell cytotoxicity in the T. cruzi infection model; type: cell-based, mouse; conditions: mouse; host cardiomyoblasts; read-out: C2C12 Cytotoxicity CC50
Description: The plates were incubated at 37° C. for 48 h, and the wells were fixed with 2% paraformaldehyde in PBS and stained with 5 μg mL-1 4,6-diamidino-2-phenylindole. After at least 30 min of incubation at room temperature in the dark, the plates were read in an automated microscope, ImageXpress Micro XL (Molecular Devices), and the images were analyzed by custom-built software to quantify and assess viability of the parasites, as well as the host cells independently. The compilation of data was used to calculate the antiparasitic activity (EC50) and host cytotoxicity (CC50).
T. cruzi infection was evaluated in C2C12 murine cardiomyoblast cells. […] The wells were fixed with 2% PFA in PBS, and stained by 5 μg/ml of DAPI. After >30 min of incubation in a dark environment, the plates were read on an ImageXpress MicroXL microscope (Molecular Devices). The images were analyzed to quantify parasites as well host cells.

[16] = Thiolation of inhibitors with glutathione, LCMS; type: physicochemical; conditions: 1 mM glutathione, 0.5 mM compound, Tris pH 8.0, 10% DMSO, room temperature
Description: Samples were analyzed by HPLC-MS (as described above) by injecting 0.01 mL aliquots onto a Luna […] C18(2) 100 Å, 4.6 mm, 50 mm column (Phenomenex) using the HPLC method described in the chemistry section at 0-6 h time points. […] Integration of the chromatographic peaks of the inhibitors and their GSH adducts at each time point was used to determine the rate of GSH adduct formation.

[17] = test system: T. b. brucei bloodstream forms; conditions: Ref. 25; read-out: EC50 in T. b. brucei BSFs; cited from earlier work
[18] = test system: CYPs 3A4, 2D6 and 2C9; test: Stability of acetal prodrugs to CYPs; conditions: CYP 3A4, 2D6, 2C9, NADPH-regenerating system, up to 4 h
[19] = apparent tight-binding inhibition constant, 25° C., read-out: Ki*
[20] = obtained >10 minutes following initiation of reaction by addition of enzyme, read-out: Ki* Cruzain
[21] = C2C12 murine cardiomyoblasts, read-out: EC50 T. cruzi-infected cardiomyoblasts
[22] = read-out: EC50 T. b. brucei BSF, axenic culture

Chain of cruzain (P25779 123-467 limits assumed): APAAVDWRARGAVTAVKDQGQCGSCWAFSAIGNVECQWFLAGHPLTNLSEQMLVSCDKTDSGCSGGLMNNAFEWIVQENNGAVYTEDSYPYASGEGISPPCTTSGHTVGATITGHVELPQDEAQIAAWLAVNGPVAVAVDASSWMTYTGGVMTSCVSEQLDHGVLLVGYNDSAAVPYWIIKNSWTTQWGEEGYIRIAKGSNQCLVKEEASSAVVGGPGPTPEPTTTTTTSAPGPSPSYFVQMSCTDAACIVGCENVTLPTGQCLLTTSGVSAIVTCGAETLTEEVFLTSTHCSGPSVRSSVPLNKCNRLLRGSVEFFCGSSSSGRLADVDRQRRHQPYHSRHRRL

| SMILES | Ki [1, 19] [µM] | Ki [1, 20] [µM] | EC50 [3] [µM] | EC50 [4] [µM] | half-life of conversion to compound 36 [5] [min] | EC50 [6, 22] [µM] | also measured |
| --- | --- | --- | --- | --- | --- | --- | --- |
| CC(=O)OC1Oc2ccccc2C[C@@H]1NC(=O)[C@H](Cc1ccccc1)NC(=O)N1CCN(C)CC1 (stereo partly drawn) [Compound 37, (3S)-3-((S)-2-(4-methylpiperazine-1-carboxamido)-3-phenylpropanamido)chroman-2-yl acetate] | 1 | ~1 | 2.5 | 0.31 | 48 | 3.7 | EC50 [2, 21]: 13 ± 2 µM; degradation in buffer without esterase ([5]; over 3 h, pH 7.5): about 10% |
| CC(C)C(=O)OC1Oc2ccccc2C[C@@H]1NC(=O)[C@H](Cc1ccccc1)NC(=O)N1CCN(C)CC1 (stereo partly shown) [Compound 39] |  | > 5 | 4 | 0.31 | 16 | 4 ± 0.2 | EC50 [2, 21]: 14 ± 6 µM |
| O=C(Cn1ccnc1[N+](=O)[O-])NCc1ccccc1 [benznidazole, reference compound] |  |  |  |  |  |  | EC50 ([2]; Trypanosoma cruzi, C2C12, read-out: EC50 T. cruzi-infected cardiomyoblasts): 4 ± 2 µM; LD50 [7]: 1.5 µM |
| CCC(=O)OC1Oc2ccccc2C[C@@H]1NC(=O)[C@H](Cc1ccccc1)NC(=O)N1CCN(C)CC1 (stereo partly shown) [Compound 38] |  | > 5 | 2.5 | 0.62 | 24 | 3.1 ± 0.2 |  |
| CCOC1Oc2ccccc2C[C@@H]1NC(=O)[C@H](Cc1ccccc1)NC(=O)N1CCN(C)CC1 (stereo partly drawn) [Compound 40, N-((2S)-1-(((3S)-2-ethoxychroman-3-yl)amino)-1-oxo-3-phenylpropan-2-yl)-4-methylpiperazine-1-carboxamide] |  |  |  |  |  | 12 ± 0.1 | transformation to 36 by CYPs [8]: no transformation to 36 was observed; EC50 ([6]; Trypanosoma brucei, read-out: EC50 T. b. brucei BSF, axenic culture): 11 to 14 µM |
| CN1CCN(C(=O)N[C@@H](Cc2ccccc2)C(=O)N[C@H](C=O)CCc2ccccc2)CC1 [Compound 52, 4-Methyl-N—((S)-1-oxo-1-(((S)-1-oxo-4-phenylbutan-2-yl)amino)-3-phenylpropan-2-yl)piperazine-1-carboxamide] |  | 0.0005 ± 0.0002 |  |  |  |  | residence time [1]: 45 min; kobs of phenylhydrazone formation ([9]; 0.2 mM compound): (2.61±0.05)×10^−4 s^−1; free aldehyde by phenylhydrazine treatment ([9]; aqueous buffer, 2 hours): completely converted to phenylhydrazone |
| O=C(N[C@@H](Cc1ccccc1)C(=O)N[C@H](/C=C/c1ncccn1)Cc1ccccc1)OCc1ccccc1 [Compound 7, Benzyl ((S)-1-Oxo-3-phenyl-1-(((S,E)-1-phenyl-4-(pyrimidin-2-yl)-but-3-en-2-yl)amino)propan-2-yl)carbamate] | 0.38 |  |  |  |  |  | Ki ([1]; Ki* Cruzain, obtained >10 minutes following initiation of reaction by addition of enzyme): 0.12 to 0.4 µM and 0.31 µM; Ki ([1]; apparent initial inhibition constant, 25° C., read-out: Ki): 28 ± 1 µM; k4 ([1]; conversion of EI* back to EI, from kobs replot or recovery after preincubation and dilution): 0.0018 ± 0.0003 s⁻¹; Ki [10]: 1.1 ± 0.1 µM; Ki [11]: 32 ± 3 µM; Ki [12]: 0.37 ± 0.02 µM; EC50 [13]: 5 to 15 µM; CC50 [14]: > 100 µM; CC50 at 48 h [15]: > 10 µM; Rate of Thiolation, k [16]: Negligible |
| N=C(N)c1ccc(/N=N/Nc2ccc(C(=N)N)cc2)cc1 [diminazene] |  |  |  |  |  |  | EC50 [17]: 0.99 µM |
| CC(C)OC1Oc2ccccc2C[C@@H]1NC(=O)[C@H](Cc1ccccc1)NC(=O)N1CCN(C)CC1 (stereo partly shown) [Compound 41] | > 5 | > 5 | > 20 | 5 |  | 14 ± 0.9 | transformation to 36 by CYPs [18]: no transformation to 36 was observed |
